# Measurements: patent US6794489B2, “Compositions and methods for treatment of sexual dysfunction” (Palatin Technologies, Inc., priority 1999, dated 2004)
# How the values were obtained:
# [1] = Representative Profile in Monkeys Intravenously Delivered
# Excerpt: Table printed on a drawing sheet, FIG. 2
# Title: Representative Profile in Monkeys Intravenously Delivered
# [2] = Profiles in Monkeys Intranasally Delivered
# Excerpt: Table printed on a drawing sheet, FIG. 3
# Title: Profiles in Monkeys Intranasally Delivered
# First reader's note: Columns 2001, 2002 and 2003 are individual monkeys, and the last two columns are their mean and SEM; the substance name is taken from the y-axis label, printed 'Compopund 1'.
# Sprague Dawley rats [3] = assay: Induction of penile erection by intranasal administration; assay type: in vivo, rat; conditions: for % Rats with Penile Erection / Number of Erections/Rat/30 Minutes: intranasal
# Method: In another series of experiments, a dosing study was conducted in rats by nasal administration of from 15 μg per kg of body weight to 1500 μg per kg of body weight, using Nasal Formulation 1. Based on penile erectile response behavior, the peptide was efficacious at all dose amounts administered, and particularly from 25 μg/kg to 75 μg/kg, with pharacologic effect observed over the range from 15 μg/kg to 1500 μg/kg. […]
# Sprague Dawley rats [4] = assay: Inhibition of Compound 1-induced penile erection by melanocortin antagonist; assay type: in vivo, rat; conditions: 25 or 50 μg/kg nasal in Nasal Formulation 1, control groups
# ferrets = assay: Ferret emesis study; assay type: in vivo; conditions: animals out of six
# Excerpt: Ferrets are a recognized model for emetic studies. The vehicle for both intravenous and intranasal administration was saline. The positive control was cisplatin, known to induce vomiting in ferrets. The data is described as the number of animals out of a group of six showing signs of vomiting.
# [5] = Pharmacokinetics in rats following IV administration; assay type: in vivo, rat; conditions: intravenous 100 μg/kg, bioassay
# Female Long-Evans rats [6] = assay: Female sexual response, bilevel chambers; assay type: in vivo, rat; conditions: 200 μg/kg subcutaneous
# Method: Female Long-Evans rats (200-250 g) were house in groups of 2 to 4 depending on size in plastic cages in a colony room maintained on a reversed 12:12 hour light/dark cycle at approximately 21° C. with food and water ad libitum. The rats were ovariectomized bilaterally via lumbar incisions one week prior to preliminary tests of sexual behavior. Intact Long-Evans male rats served as stimulus males, and were sexual vigorous, initiating copulatory activity with females within 15 seconds of being placed into bilevel chambers containing female rats. Following preliminary tests of sexual behavior, females were administered subcutaneous injections of estradiol benzoate, 10 μg in 0.1 mL of sesame oil, forty-eight hours prior to testing, and progesterone, 500 μg in 0.1 mL of sesame oil, four hours prior to testing. Administration of estradiol benzoate and progesterone induced full sexual receptivity in the female rats. Female rats were placed in bilevel chambers five minutes prior to the introduction of a sexual vigorous male. […] Tests were videotaped and score subsequently for appetitive level changing during the five minute period prior to the introduction of the male, lordosis quotients and reflex magnitudes, incidents of solicitation (head-wise orientation and runaway), hops and darts, pacing (level changes per mount), female mounts and defensive responses. […]
# Female Long-Evans rats [7] = assay: Female sexual response, unilevel pacing chambers; assay type: in vivo, rat; conditions: 200 μg/kg subcutaneous
# Excerpt: Tests were videotaped and scored as in Example 13, with pacing defined as number of exits from and returns to the side with the male; and exist and return latencies following mounts, intromissions or ejaculations. FIGS. 8A, 8B, 8C and 8D show the results.
# [8] = PROFILE IN RATS INTRAVENOUSLY ADMINISTERED
# Excerpt: Table printed on a drawing sheet, FIG. 1
# Title: PROFILE IN RATS INTRAVENOUSLY ADMINISTERED
# Section band inside the table: i.v.
# Sprague Dawley rats [9] = assay: Induction of penile erection by intravenous injection; conditions: for Dose resulting in equivalent penile response by intravenous injection / Efficacious dose (penile erection in 100% of animals): rats; for Efficacious dose (penile erection in 100% of animals): intravenous injection
# [10] = test system: men with psychogenic erectile dysfunction; conditions: subcutaneous, 0.025 to 0.157 mg/kg, cited from earlier work
compound,measurement,setting,value
CCCC[C@H](NC(C)=O)C(=O)N[C@H]1CC(=O)NCCCC[C@@H](C(=O)O)NC(=O)[C@H](Cc2c[nH]c3ccccc23)NC(=O)[C@H](CCCNC(=N)N)NC(=O)[C@@H](Cc2ccccc2)NC(=O)[C@H](Cc2c[nH]cn2)NC1=O [Compopund 1],AUC,[1],3730.0 ng·min/mL
same,Cmax,[1],1149.0 ng/mL
same,Tmax,[1],0 h
same,%Bioavailability,[2],0.73%
same,AUC,[2],27.16 ng·min/mL
same,Cmax,[2],0.38 ng/mL
same,Tmax,[2],50.00 min
"CCCCC(NC(C)=O)C(=O)NC1CC(=O)NCCCCC(C(=O)O)NC(=O)C(Cc2c[nH]c3ccccc23)NC(=O)C(CCCNC(=N)N)NC(=O)C(Cc2ccccc2)NC(=O)C(Cc2c[nH]cn2)NC1=O [Compound 1, Ac-Nle-cyclo(-Asp-His-D-Phe-Arg-Trp-Lys)-OH]",% Rats with Penile Erection,Sprague Dawley rats [3]; 15 μg/kg,50%
same,Number of Erections/Rat/30 Minutes,Sprague Dawley rats [3]; 15 μg/kg,0.5
same,% Rats with Penile Erection,Sprague Dawley rats [3]; 25 μg/kg,100%
same,Number of Erections/Rat/30 Minutes,Sprague Dawley rats [3]; 25 μg/kg,2.0
same,% Rats with Penile Erection,Sprague Dawley rats [3]; 37 μg/kg,100%
same,Number of Erections/Rat/30 Minutes,Sprague Dawley rats [3]; 37 μg/kg,2.0
same,% Rats with Penile Erection,Sprague Dawley rats [3]; 50 μg/kg,100%
same,Number of Erections/Rat/30 Minutes,Sprague Dawley rats [3]; 50 μg/kg,2.0
same,% Rats with Penile Erection,Sprague Dawley rats [3]; 75 μg/kg,100%
same,Number of Erections/Rat/30 Minutes,Sprague Dawley rats [3]; 75 μg/kg,2.5
same,% Rats with Penile Erection,Sprague Dawley rats [3]; 500 μg/kg,100%
same,Number of Erections/Rat/30 Minutes,Sprague Dawley rats [3]; 500 μg/kg,1.5
same,% Rats with Penile Erection,Sprague Dawley rats [3]; 1000 μg/kg,100%
same,Number of Erections/Rat/30 Minutes,Sprague Dawley rats [3]; 1000 μg/kg,1.5
same,% Rats with Penile Erection,Sprague Dawley rats [3]; 1500 μg/kg,50%
same,Number of Erections/Rat/30 Minutes,Sprague Dawley rats [3]; 1500 μg/kg,0.5
same,"Rats with observed erections, without pre-administration of SHU9119",Sprague Dawley rats [4],100%
same,Signs of vomiting (proportions),ferrets; 10 μg/kg IV,0/6
same,Signs of vomiting (proportions),ferrets; 30 μg/kg IV,6/6
same,Signs of vomiting (proportions),ferrets; 100 μg/kg IN,0/6
same,Signs of vomiting (proportions),ferrets; 100 μg/kg IV,6/6
same,Signs of vomiting (proportions),ferrets; 300 μg/kg IN,1/6
same,Signs of vomiting (proportions),ferrets; 500 μg/kg IN,1/6
same,Pharmacokinetic profile in plasma,[5],bi-phasic
same,"Rates of appetitive level changing, pacing, lordosis, female mounts or rejection responses",Female Long-Evans rats [6],without affecting
same,Number of solicitations,Female Long-Evans rats [6]; fully and partially primed female rats,increased the number of solicitations significantly
same,Ejaculation return latencies,Female Long-Evans rats [7],increase
same,Lordosis or defensive responding,Female Long-Evans rats [7],no effect
same,Number of exits or returns made by the females,Female Long-Evans rats [7],no significant effect
same,"Number of solicitations, hops and darts, and female mounts compared to controls",Female Long-Evans rats [7]; fully primed,"increased the number of solicitations, hops and darts, and female mounts significantly"
same,α-phase,[8],5 min
same,β-phase,[8],25 min
same,% Rats with Penile Erection,"Sprague Dawley rats [9]; intravenous, 0.5 μg/kg",50%
same,Number of Erections/Rat/30 Minutes,"Sprague Dawley rats [9]; intravenous, 0.5 μg/kg",0.5
same,% Rats with Penile Erection,"Sprague Dawley rats [9]; intravenous, 1.0 μg/kg",100%
same,Number of Erections/Rat/30 Minutes,"Sprague Dawley rats [9]; intravenous, 1.0 μg/kg",1.0
same,% Rats with Penile Erection,"Sprague Dawley rats [9]; intravenous, 2.0 μg/kg",100%
same,Number of Erections/Rat/30 Minutes,"Sprague Dawley rats [9]; intravenous, 2.0 μg/kg",2.0
same,Rats having multiple erections,"Sprague Dawley rats [9]; intravenous, 2 μg/kg, 30 minutes observation period",approximately 50%
same,% Rats with Penile Erection,"Sprague Dawley rats [9]; intravenous, 5.0 μg/kg",100%
same,Number of Erections/Rat/30 Minutes,"Sprague Dawley rats [9]; intravenous, 5.0 μg/kg",1.8
same,% Rats with Penile Erection,"Sprague Dawley rats [9]; intravenous, 10.0 μg/kg",100%
same,Number of Erections/Rat/30 Minutes,"Sprague Dawley rats [9]; intravenous, 10.0 μg/kg",2.5
same,Dose resulting in equivalent penile response by intravenous injection,Sprague Dawley rats [9],2 μg/kg of body weight
same,Efficacious dose (penile erection in 100% of animals),Sprague Dawley rats [9],0.001 mg/kg
Melanotan-II [reference compound],% Rats with Penile Erection,Sprague Dawley rats [3]; 100 μg/kg,25%
same,Number of Erections/Rat/30 Minutes,Sprague Dawley rats [3]; 100 μg/kg,0.25
same,% Rats with Penile Erection,Sprague Dawley rats [3]; 500 μg/kg,100%
same,Number of Erections/Rat/30 Minutes,Sprague Dawley rats [3]; 500 μg/kg,1.0
same,Period of the penile erection response after nasal administration,"Sprague Dawley rats [3]; rats, 30 minute observation in ten-minute periods",2nd and 3rd ten-minute period
same,Treated men developing clinically apparent erections,[10],8 of 10
same,Mean duration of tip rigidity greater than 80%,[10]; placebo 3.0 minutes,38 min
same,% Rats with Penile Erection,"Sprague Dawley rats [9]; intravenous, 10.0 μg/kg",17%
same,Number of Erections/Rat/30 Minutes,"Sprague Dawley rats [9]; intravenous, 10.0 μg/kg",0.3
same,% Rats with Penile Erection,"Sprague Dawley rats [9]; intravenous, 100.0 μg/kg",75%
same,Number of Erections/Rat/30 Minutes,"Sprague Dawley rats [9]; intravenous, 100.0 μg/kg",1.0
same,Optimal efficacious dose intravenously,Sprague Dawley rats [9]; rat model of penile erection,100 μg/kg of body weight
same,Dose resulting in equivalent penile response by intravenous injection,Sprague Dawley rats [9],100 μg/kg of body weight
same,Efficacious dose (penile erection in 100% of animals),Sprague Dawley rats [9],≥ 0.1 mg/kg
